Values after ≈ are worked out from the molar mass of the structure shown. “Also recorded” adds a separate entry of the source.
How the values were obtained:
[1] = test system: St. faecalis CN478; assay: MIC against St. faecalis CN478 in vitro; type: cell-based; settings: Enterococcus faecalis, read-out: Minimum Inhibitory Concentration (MIC)
Description: (§1) The compounds of the present invention were subjected to standard tests in order to determine the minimum inhibitory concentration in μg/ml needed to inhibit a range of bacterial microorganisms in-vitro.

[2] = test system: Vibrio cholerae ATCC14035; assay: MIC against Vibrio cholerae ATCC14035 in vitro; type: cell-based; settings: ATCC14035, read-out: Minimum Inhibitory Concentration (MIC)
Description: as §1

[3] = test system: Meningococci; assay: MIC against Meningococci in vitro; type: cell-based; settings: Meningococci (average 5 strains); read-out: Minimum Inhibitory Concentration (MIC)
Description: as §1

[4] = test system: Salmonella dublin; assay: Experimental salmonellosis in calves; type: in vivo; settings: for Mortality: 5 days from two days after infection, deaths/calves
[5] = test system: Esch. coli CN314; assay: MIC against Esch. coli CN314 in vitro; type: cell-based; settings: Escherichia coli, read-out: Minimum Inhibitory Concentration (MIC)
Description: as §1

[6] = test system: Staph. aureus CN491; assay: MIC against Staph. aureus CN491 in vitro; type: cell-based; settings: Staphylococcus aureus, read-out: Minimum Inhibitory Concentration (MIC)
Description: as §1

[7] = test system: B. fragilis; assay: MIC against B. fragilis in vitro; type: cell-based; settings: Bacteroides fragilis; B. fragilis (average 3-10 strains); read-out: Minimum Inhibitory Concentration (MIC)
Description: as §1

[8] = test system: St. agalactiae CN1143; assay: MIC against St. agalactiae CN1143 in vitro; type: cell-based; settings: Streptococcus agalactiae, read-out: Minimum Inhibitory Concentration (MIC)
Description: as §1

[9] = test system: Gonococci; assay: MIC against Gonococci in vitro; type: cell-based; settings: Gonococci (average 17 strains); read-out: Minimum Inhibitory Concentration (MIC)
Description: as §1

[10] = test system: anaerobic bacteria; settings: general statement on trimethoprim; cited from earlier work
[11] = test system: Staph. aureus; assay: MIC vs Staph. aureus (Table 2); type: cell-based; settings: Staphylococcus aureus, strain not given
Description: as §1

[12] = test system: aerobic bacteria; settings: general statement on trimethoprim; cited from earlier work
[13] = test system: Pr. mirabilis S2409; assay: MIC against Pr. mirabilis S2409 in vitro; type: cell-based; settings: Proteus mirabilis, read-out: Minimum Inhibitory Concentration (MIC)
Description: as §1

[14] = test system: Salmonella dublin; settings: even at 40 mg/kg/day; cited from earlier work
[15] = Acute toxicity in rat; settings: in vivo, po; p.o. rat
[16] = Acute toxicity in mouse; settings: in vivo, ip; i.p. mouse
[17] = test system: four individual gram negative microorganisms and one isolate of S. aureus; assay: Checkerboard potentiation study with SMX, overall; type: cell-based; settings: words
Description: 2. Compound Preparation. Compound 1, trimethoprim (TMP) and SMX were each treated with N,N-dimethylformamide for 30 minutes. Dilutions were prepared using sterile distilled water.
3. Testing procedure. Two checkerboard patterns were set-up, namely: 1. SMX and TMP-lactate and 2. SMX and compound 1-lactate. Thirteen, two-fold dilutions of compound 1-lactate were prepared with final concentrations ranging from 6.2 ug/ml to 0.0016 ug/ml. Twenty two, two-fold dilutions of SMX were prepared with final plate concentrations ranging from 31 ug/ml to 0.000016 ug/ml. An analogous checkerboard scheme was set-up for the combination TMP and SMX. Microorganisms were grown on Wellcotest Sensitivity Test Agar containing various concentrations and permutations of compounds.
From the MIC's, a fractional inhibitory concentration (FIC) was calculated. This involves determining a fraction by dividing the MIC of an agent in combination over the MIC of the agent alone (1). If it is less than one, the interaction is synergistic, and if the sum is greater than one, the combination is antagonistic.

[18] = 1 mg/kg daily plus SDZ 20 mg/kg

Row | Structure (SMILES) | MIC [1] [mg/L] | MIC [2] [mg/L] | MIC [3] [mg/L] | Mortality [4, 18] | MIC [5] [mg/L] | MIC [6] [mg/L] | MIC [7] [mg/L] | MIC [8] [mg/L] | MIC [9] [mg/L] | MIC [13] [mg/L] | LD50 [16] [mg/kg] | also measured
1 | COc1cc(Cc2cnc(N)nc2N)cc(OC)c1OC [TMP, 2,4-diamino-5-(3,4,5-trimethoxybenzyl)pyrimidine, reference compound] | 0.1 (≈ 0.344 µM) | 0.5 (≈ 1.72 µM) | 18 (≈ 62 µM) | 2/7 | 0.05 (≈ 0.172 µM) | 0.5 (≈ 1.72 µM) | 4 (≈ 13.8 µM) | 0.5 (≈ 1.72 µM) | 37.1 (≈ 128 µM) | 5 (≈ 17.2 µM) | – | level of activity against anaerobic bacteria [10]: activity against anaerobic bacteria is less impressive; MIC [11]: 0.5 mg/L (≈ 1.72 µM); level of activity against aerobic bacteria [12]: excellent level of activity against most aerobic bacteria
2 | Nc1ccc(S(=O)(=O)Nc2ncccn2)cc1 [SDZ] | – | – | – | – | – | – | – | – | – | – | – | effect on mortality, SDZ alone [14]: no effect on mortality in this disease model
3 | COc1cc(Cc2cnc(N)nc2N)c2c(c1OC)OCC=C2 [Compound 1, 2,4-Diamino-5-(7,8-dimethoxy-2 --H--1-benzopyran-5-ylmethyl)-pyrimidine] | 0.05 (≈ 0.159 µM) | 0.05 (≈ 0.159 µM) | 3.1 (≈ 9.86 µM) | 0/6 | 0.05 (≈ 0.159 µM) | 0.05 (≈ 0.159 µM) | 1.08 (≈ 3.44 µM) | 0.05 (≈ 0.159 µM) | 10 (≈ 31.8 µM) | 5 (≈ 15.9 µM) | 610 | Mortality ([4]; 0.5 mg/kg daily plus SDZ 20 mg/kg): 3/7; reduction of mortality, in words ([4]; 0.5 mg/kg plus SDZ 20 mg/kg, in comparison with TMP 1 mg/kg): produced a reduction of mortality comparable with that in group 1 (TMP, 1 mg/kg); efficacy relative to TMP ([4]; 1 mg/kg each, plus SDZ 20 mg/kg): clearly superior to TMP at 1 mg/kg; recovery of the survivors ([4]; 1 mg/kg plus SDZ 20 mg/kg, in comparison with TMP 1 mg/kg (group 1)): much more rapid recovery of the survivors in group 2; effectiveness relative to TMP ([4]; with SDZ 20 mg/kg, conclusion from all groups): approximately twice as effective as TMP in this disease syndrome; LD50 [15]: > 1000 mg/kg; in vitro potentiation with SMX [17]: SMX appears to potentiate compound 1 as well as it does TMP; also recorded: in vitro potentation can be demonstrated between SMX and compound 1 in the case of four individual gram negative microorganisms and one isolate of S. aureus
4 | COc1cc(Cc2cnc(N)nc2N)c2cccnc2c1N.Cl.Cl [Compound 8, 2,4-Diamino-5-(8-amino-7-methoxy-5-quinolylmethyl)-pyrimidine dihydrochloride] | 0.1 | 0.05 | 3.7 | – | 0.1 | 0.1 | 5.2 | 0.1 | 11.1 | 1 | 500 | –

Source: patent US4587342A, “2,4-diamino-(substituted-benzopyran(quinolyl,isoquinoly)methyl)pyrimidine s useful as antibacterials” (priority 1980, dated 1986)
